Where two headings read alike, the source gives them in different places.
Legend:
[1] = Measurement of brain and systemic concentration after oral administration; format: in vivo; details: rat, male wistar rats, 3 h after oral administration (100 mg/kg), n=3
Experimental: Measurement of Brain and Systemic Concentration after Oral Administration:
In order to assess brain penetration, the concentration of the compound is measured in plasma ([P]), and brain ([B]), sampled 3 h (or at different time points) following oral administration (e.g. 100 mg/kg) to male wistar rats. The compounds are formulated e.g. in 100% PEG 400. Samples are collected in the same animal at the same time point (+/−5 min). Blood is sampled from the vena cava caudalis into containers with EDTA as anticoagulant and centrifuged to yield plasma. Brain is sampled after cardiac perfusion of 10 mL NaCl 0.9% and homogenized into one volume of cold phosphate buffer (pH 7.4). All samples are extracted with MeOH and analyzed by LC-MS/MS. Concentrations are determined with the help of calibration curves.

rodents = details: cited from earlier work
humans = details: indication primary insomnia; cited from earlier work
rats = rats treated with the compound; cited from earlier work
[2] = test system: amyloid precursor protein transgenic mice; details: after acute sleep restriction; cited from earlier work
mouse = details: administered chronically; cited from earlier work
rat = details: cited from earlier work
[3] = brain, read-out: concentration of the compound in brain ([B])
[4] = plasma, read-out: concentration of the compound in plasma ([P])

| Compound | concentration at 3 h [1, 3] | concentration at 3 h [1, 4] | also measured |
| --- | --- | --- | --- |
| Cc1ccc(-n2nccn2)c(C(=O)N2CCC[C@@]2(C)c2nc3cc(Br)cc(C)c3[nH]2)c1 [Example 5.19, [(S)-2-(5-Bromo-7-methyl-1H-benzoimidazol-2-yl)-2-methyl-pyrrolidin-1-yl]-(5-methyl-2-[1,2,3]triazol-2-yl-phenyl)-methanone] | 3880 ng/g | 2100 ng/mL |  |
| Cn1c(SCC(=O)N2CCC[C@H]2C(=O)Nc2ccccc2-c2ccccc2)nc2ccccc21 [N-biphenyl-2-yl-1-{[(1-methyl-1H-benzimidazol-2-yl)sulfanyl]acetyl}-L-prolinamide] |  |  | behavioral (locomotor sensitization) and molecular (transcriptional responses) changes induced by repeated amphetamine administration (rodents): reduced |
| CNC(=O)[C@@H](c1ccccc1)N1CCc2cc(OC)c(OC)cc2[C@@H]1CCc1ccc(C(F)(F)F)cc1 [(2R)-2-{(1S)-6,7-dimethoxy-1-[2-(4-trifluoromethyl-phenyl)-ethyl]-3,4-dihydro-1H-isoquinolin-2-yl}-N-methyl-2-phenyl-acetamide] |  |  | clinical efficacy (humans): showed clinical efficacy; declarative and non-declarative learning and memory (rats): intact; brain levels of amyloid-beta (Aβ) and Aβ plaque deposition [2]: decreased; activity in mouse model of depression (mouse): antidepressant-like activity; activity in nicotine self-administration model (rat): displayed pharmacological activity |
| Cc1ccc(-c2ncccn2)c(C(=O)N2CCC[C@@]2(C)c2nc3cc(Br)cc(C)c3[nH]2)c1 [Example 5.277, [(S)-2-(5-Bromo-7-methyl-1H-benzoimidazol-2-yl)-2-methyl-pyrrolidin-1-yl]-(5-methyl-2-pyrimidin-2-yl-phenyl)-methanone] | 5880 ng/g | 3560 ng/mL |  |
| COc1ccc(-n2nccn2)c(C(=O)N2CCC[C@@]2(C)c2nc3c(C)c(Cl)ccc3[nH]2)c1 [Example 5.36, [(S)-2-(5-Chloro-4-methyl-1H-benzoimidazol-2-yl)-2-methyl-pyrrolidin-1-yl]-(5-methoxy-2-[1,2,3]triazol-2-yl-phenyl)-methanone] | 1810 ng/g | 1280 ng/mL |  |
